According to patent publication US20100331424A1, “Use of Axomadol for Treatment of Arthrosis Pain” (Gruenenthal GmbH, priority 2007, published 2010):
Counter-ions that a name gives are not always drawn.

Tests used:
[1] = system: moderate to severe chronic pain as a result of osteoarthritis (OA) of the hip or knee; test: Clinical Study A: axomadol vs tramadol and placebo, 4 weeks, patients with OA of the hip or knee; type: in vivo; conditions: for Decrease in pain intensity compared to baseline: full analysis set, day 29, axomadol 44, 66, 110 mg bid, tramadol 100 mg bid
Experimental: (§1) Two studies with a respective treatment period of 4 weeks were conducted to determine the efficacy and safety of axomadol in patients with moderate to severe chronic pain as a result of osteoarthritis (arthrosis, OA) of functional class I-III.
In this study, patients with OA of the hip or knee were divided into 5 groups.

[2] = system: moderate to severe chronic pain as a result of osteoarthritis (OA) of the knee; test: Clinical Study B: axomadol vs oxycodone CR and placebo, 4 weeks, patients with OA of the knee; type: in vivo; conditions: for p of primary endpoint compared to the placebo group: per protocol set
Experimental: In this study, patients with OA of the knee were divided into 4 groups. Two of the patient groups received different doses of axomadol hydrochloride: 100 mg and 150 mg based on the free base, twice daily in each case after a titration period of 2 weeks, in which the dose of axomadol was increased on a weekly basis. […] A further group was given a placebo twice daily.

[3] = system: moderate to severe chronic pain as a result of osteoarthritis (arthrosis, OA) of functional class I-III; test: Both clinical studies (A and B), statements made for both; type: in vivo, patients; conditions: after 4 weeks
Experimental: as §1

[4] = system: CFA-hyperalgesia (CFA-HA); test: Antihyperalgesic effect in the chronic inflammation pain model (Complete Freund's Adjuvant, electronic von Frey); type: in vivo, Sprague Dawley rats
Experimental: The test to determine the antihyperalgesic effect of axomadol in chronic inflammation pain was conducted on rats in the Complete Freund's Adjuvant animal model (CFA).
A model for chronic inflammation represents the monoarthritis triggered by the Complete Freund's Adjuvant (CFA). By injecting a small quantity of CFA (100 μg M. tuberculosis) into the back paw a local inflammatory reaction restricted in time to 2-4 weeks occurred.
Sprague Dawley rats from a commercial breeder (Janvier, Belgium) having a weight of 140-160 g were used as test animals. The CFA-HA was induced in rats by subplantar injection of CFA (100 μl of the 1 mg/ml mycobacteria (heat-killed M. tuberculosis)/oil suspension (IFA; Difco)) into the back paw (ipsilaterally). The injection day was defined as day 0 (d 0).
Hyperalgesia to a mechanical tactile stimulus was detected by means of an electronic von Frey measuring instrument (Somedic Electronic von Frey System, Somedic Sales AB, Horby, Sweden). The paw was stimulated by subplantar application. To quantify the sensitivity of both the ipsi- and the contralateral paw to the mechanical stimulus, the paw pull-away threshold was given in grams of applied pressure. The median was formed from the four measured values per paw. The pull-away threshold of the ipsi- and contralateral paw was determined on day 1 after CFA injection before (=initial value) and at different times (15, 20 and 60 minutes) after substance dose (measured value). The efficacy of a substance was calculated as % inhibition of hyperalgesia as follows:
% inhibition of HA=(1−HA measured value/HA initial value)×100
HA initial value=pull away threshold contralateral−pull away threshold ipsilateral before substance dose
HA measured value=pull away threshold contralateral−pull away threshold ipsilateral after substance dose
In total, 10 rats were used in each test animal group. The mean±SEM was calculated from the medians of the individual animals. The significance calculation was conducted using the two-factor analysis of the variance (ANOVA) for repeated measurements. In the case of a significant treatment effect, a comparison in pairs was conducted at different measurement times by a Fisher's significance test, followed by a post hoc Dunnett test. The results were assessed as statistically significant at p<0.05.
In order to determine the maximum efficacy, the substance was administered intravenously (IV) up to the maximum possible dose.

**Q.** With `COc1cccc([C@@]2(O)C[C@H](O)CC[C@@H]2CN(C)C)c1` (racemic) [Axomadol, (1RS,3RS,6RS)-6-dimethylaminomethyl-1-(3-methoxyphenyl)-cyclohexane-1,3-diol] as the molecule, how does the “Decrease in pain intensity compared to baseline” value [1] read?
**A.** clinically relevant decrease in pain intensity

**Q.** What about the “p of decrease in pain intensity compared to the placebo group” value ([1]; per protocol set, 110 mg twice daily) of the same molecule?
**A.** < 0.05

**Q.** What about the “Decrease in pain intensity, dose dependence” value ([1]; per protocol set, axomadol 44, 66, 110 mg twice daily) of the same molecule?
**A.** higher efficacy at the higher dose

**Q.** And the “Frequency of undesirable side-effects which caused patients to discontinue the study” value ([2]; 100 mg group)?
**A.** 16.3%

**Q.** And the “Frequency of undesirable side-effects which caused patients to discontinue the study” value ([2]; 150 mg group)?
**A.** 17.7%

**Q.** And the “Severity of undesirable effects” value ([2]; axomadol groups 100 mg and 150 mg twice daily)?
**A.** slight to moderate

**Q.** And the “p of average pain intensity of the last 24 hours on day 29 compared to the placebo” value ([2]; full analysis set, 100 mg twice daily)?
**A.** 0.0190

**Q.** What about the “p of primary endpoint compared to the placebo group” value ([2]; 100 mg twice daily group) of the same molecule?
**A.** 0.0068

**Q.** What about the “p of primary endpoint compared to the placebo group” value ([2]; 150 mg twice daily group) of the same molecule?
**A.** 0.0079

**Q.** And the “Decrease in pain intensity” value [3]?
**A.** clinically significant decrease in pain intensity

**Q.** What about the “Analgesic efficacy compared to morphine, oxycodone and tramadol (in words)” value ([4]; chronic inflammation pain model) of the same molecule?
**A.** better analgesic efficacy

**Q.** What about the “Effect on CFA-induced hyperalgesia (in words)” value ([4]; rat) of the same molecule?
**A.** significantly reduces

**Q.** With `COc1cccc(C2(O)CCCCC2CN(C)C)c1` (stereo not shown) [Tramadol, reference compound] as the molecule, how does the “Decrease in pain intensity compared to baseline” value [1] read?
**A.** not observed

**Q.** And the “Dose from which overlap with antinociceptive effect (comparators: also side-effects that impair measurement)” value (shortened to “Dose from which overlap”) ([4]; rat, IV)?
**A.** From 4.64 mg/kg: overlap with antinociceptive

**Q.** With `COc1cccc([C@@]2(O)C[C@H](O)CC[C@@H]2CN(C)C)c1` (racemic) [Axomadol-HCl, (1RS,3RS,6RS)-6-dimethylaminomethyl-1-(3-methoxyphenyl)-cyclohexane-1,3-diol] as the molecule, how does the “Instance of the most frequent undesirable effects vs every other treatment group” value ([1]; 110 mg twice daily) read?
**A.** higher

**Q.** And the “Dose from which overlap” value ([4]; rat, IV)?
**A.** From 14.7 mg/kg: overlap with antinociceptive

**Q.** What about the “% Inhibition of HA” value ([4]; rat, IV, dose 2.15 mg/kg) of the same molecule?
**A.** 16%

**Q.** What about the “% Inhibition of HA” value ([4]; rat, IV, dose 10.0 mg/kg) of the same molecule?
**A.** 40%

**Q.** What about the “% Inhibition of HA” value ([4]; rat, IV, dose 14.7 mg/kg) of the same molecule?
**A.** 9%

**Q.** And the “Antihyperalgesic effect at higher doses” value ([4]; rat, IV, doses higher than 10 mg/kg)?
**A.** 9%

**Q.** `CN1CC[C@]23c4c5ccc(O)c4O[C@H]2[C@@H](O)C=C[C@H]3[C@H]1C5` [Morphine] was tested. Which “Dose from which overlap” value ([4]; rat, IV) did it give?
**A.** From 4.64 mg/kg: overlap with antinociceptive

**Q.** What about the “% Inhibition of HA” value ([4]; rat, IV, dose 0.46 mg/kg) of the same molecule?
**A.** 8%

**Q.** What about the “% Inhibition of HA” value ([4]; rat, IV, dose 1.00 mg/kg) of the same molecule?
**A.** 20%

**Q.** And the “% Inhibition of HA” value ([4]; rat, IV, dose 2.15 mg/kg)?
**A.** 27%

**Q.** For `COc1ccc2c3c1O[C@H]1C(=O)CC[C@@]4(O)[C@@H](C2)N(C)CC[C@]314` [Oxycodone], which “p of primary endpoint compared to the placebo group” value ([2]; oxycodone CR 20 mg twice daily group) is on record?
**A.** 0.0154

**Q.** What about the “Dose from which overlap” value ([4]; rat, IV) of the same molecule?
**A.** From 0.681 mg/kg: overlap with antinociceptive

**Q.** And the “% Inhibition of HA” value ([4]; rat, IV, dose 0.215 mg/kg)?
**A.** 18%

**Q.** What about the “% Inhibition of HA” value ([4]; rat, IV, dose 0.681 mg/kg) of the same molecule?
**A.** 26%
